Measurements reported in patent US20120028931A1, “HETEROCYCLIC M-GLU5 ANTAGONISTS” (RECORDATI IRELAND LIMITED, priority 2009, published 2012).

Assays:
conscious rats = experiment: Cystometry in conscious rats; assay type: in vivo, rat; conditions: administered orally
Method: Male Sprague-Dawley rats [Crl: CD® (SD) IGS BR] of 300-400 g b.w. supplied by Charles River Italia were used. The animals were housed with free access to food and water and maintained on a forced 12-hour-light/12-hour-dark cycle at 22-24° C. of temperature, except during the experiment. To quantify urodynamic parameters in conscious rats, cystometrographic studies were performed according to the procedure previously reported (Guarneri et al., Pharmacol. Res. 24: 175, 1991).
Briefly, the rats were anaesthetised by intraperitoneal administration of 3 ml/kg of Equithensin solution (pentobarbital 30 mg/kg and chloral hydrate 125 mg/kg) and placed in a supine position. […]
On the day of the experiment, the rats were placed in modified Bollman cages, i.e., restraining cages that were large enough to permit the rats to adopt a normal crouched posture, but narrow enough to prevent turning around. […] The intraluminal-pressure signal during infusion of saline into the bladder (cystometrogram) was continuously recorded on a polygraph (Rectigraph-8K San-ei with BM614/2 amplifier from Biomedica Mangoni) or stored on PC by data acquisition system (PowerLab, Chart 4 software, AD Instruments). From the cystometrogram, bladder volume capacity (BVC) was evaluated. […] Basal BVC value was evaluated as the mean of the values observed in the cystometrograms recorded in an initial period of 30-60 minutes. […]

mGlu5 receptor = biological target: T1, mGlu5 receptor (Rattus norvegicus, UniProt P31424); experiment: Radioligand binding assay at metabotropic glutamate receptor 5 in rat brain ([3H]MPEP); conditions: rat forebrain membranes, 4 nM [3H]MPEP; Ki from IC50 by Cheng & Prusoff; read-out: affinity (Ki) for mGlu5 receptor
T1 construct: from tissue; host or cells: forebrain (cortex, striatum and hippocampus) membranes of male Sprague Dawley rats
T1 sequence (P31424 21-1203): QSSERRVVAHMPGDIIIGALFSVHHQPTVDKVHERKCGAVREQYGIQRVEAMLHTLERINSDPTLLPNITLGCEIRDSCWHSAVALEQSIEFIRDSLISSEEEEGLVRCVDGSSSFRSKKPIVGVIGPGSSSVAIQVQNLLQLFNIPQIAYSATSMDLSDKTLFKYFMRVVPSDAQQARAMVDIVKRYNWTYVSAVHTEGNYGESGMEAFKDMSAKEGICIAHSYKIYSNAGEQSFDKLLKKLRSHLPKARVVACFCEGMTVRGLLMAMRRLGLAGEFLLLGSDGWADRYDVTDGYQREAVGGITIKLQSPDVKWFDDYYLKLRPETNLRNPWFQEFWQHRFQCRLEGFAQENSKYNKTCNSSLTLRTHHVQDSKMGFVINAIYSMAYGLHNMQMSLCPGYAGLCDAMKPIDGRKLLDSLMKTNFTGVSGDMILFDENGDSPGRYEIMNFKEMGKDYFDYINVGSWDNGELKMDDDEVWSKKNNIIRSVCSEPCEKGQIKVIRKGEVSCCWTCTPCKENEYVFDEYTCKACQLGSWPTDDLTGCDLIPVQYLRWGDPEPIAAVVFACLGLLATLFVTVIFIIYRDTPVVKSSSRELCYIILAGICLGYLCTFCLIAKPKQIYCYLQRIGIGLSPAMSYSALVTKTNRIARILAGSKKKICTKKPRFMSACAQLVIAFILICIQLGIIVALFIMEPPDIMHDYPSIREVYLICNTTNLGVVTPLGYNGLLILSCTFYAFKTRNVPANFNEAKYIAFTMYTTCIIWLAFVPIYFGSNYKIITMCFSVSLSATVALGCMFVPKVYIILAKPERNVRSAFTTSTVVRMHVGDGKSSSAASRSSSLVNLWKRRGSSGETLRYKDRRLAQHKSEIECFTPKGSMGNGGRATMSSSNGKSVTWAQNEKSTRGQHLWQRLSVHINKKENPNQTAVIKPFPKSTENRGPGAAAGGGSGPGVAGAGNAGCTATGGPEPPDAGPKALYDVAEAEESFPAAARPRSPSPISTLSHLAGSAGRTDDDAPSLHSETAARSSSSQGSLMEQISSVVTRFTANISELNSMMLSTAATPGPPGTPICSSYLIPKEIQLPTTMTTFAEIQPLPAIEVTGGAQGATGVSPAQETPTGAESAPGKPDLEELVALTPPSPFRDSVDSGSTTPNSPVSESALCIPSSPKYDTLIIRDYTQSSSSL
Method: Radioligand Binding Assay at metabotropic glutamate receptor 5 in rat brain.
a) Membrane preparation: male Sprague Dawley rats (200-300 g, Charles River, Italy) were killed by cervical dislocation and the forebrain (cortex, striatum and hippocampus) was homogenized (2×20 sec) in 50 vols of cold 50 mM Tris buffer pH 7.4, using a Politron homogenizer (Kinematica). Homogenates were centrifuged at 48000×g for 15 min, resuspended in 50 vols of the same buffer, incubated at 37° C. for 15 min and centrifuged and resuspended two more times. The final pellets were frozen and stored at −80° C. until use.
b) Binding assay: pellets from rat forebrain were resuspended in 100 vols of 20 mM HEPES, 2 mM MgCl2, 2 mM CaCl2, pH 7.4. The membranes were incubated in a final volume of 1 ml for 60 min at 25° C. with 4 nM [^3H]MPEP in the absence or presence of competing drugs. Non-specific binding was determined in the presence of 10 μM MPEP (Spooren W. et al. Trends Pharmacol Sci. 22, 331-337, 2001). The incubation was stopped by the addition of cold Tris buffer pH 7.4 and rapid filtration through 0.5% polyethyleneimine pretreated Filtermat 1204-401 (Wallac) filters. The filters were then washed with cold buffer and the radioactivity retained on the filters was counted by liquid scintillation spectrometry. […]

Ki (mGlu5 receptor) [nM] | Structure (SMILES) | effect on bladder volume capacity (BVC) (conscious rats)
– | Cc1ccc([N+](=O)[O-])c(N2CCC(=Cc3noc(-c4cccs4)n3)CC2)n1 [Example 29, 1-(6-methyl-3-nitro-2-pyridyl)-4-{[5-(2-thienyl)-1,2,4-oxadiazol-3-yl]-methylene}-piperidine] | effective in increasing the bladder volume capacity
0.37 | Cc1ccc([N+](=O)[O-])c(N2CCC(=Cc3cc(-c4ccco4)n(C)n3)CC2)n1 [Example 1, 1-(6-methyl-3-nitro-2-pyridyl)-4-{[5-(2-furyl)-1-methyl-1H-pyrazol-3-yl]-methylene}-piperidine] | –
